Consider 6 compounds from patent US10633419B2, “Immunomodulators” (BRISTOL-MYERS SQUIBB COMPANY, priority 2014, dated 2020).

Usually IC50 stands for the concentration that inhibits the measured activity by half.

Positions of bridges follow the written chain, without caps; N, C: chain ends. Non-standard residues stand in square brackets, D forms with d. Residues, ends and D or L forms follow the SMILES beside them. ξ: configuration not given here. *: point of attachment. X12 = O=C(O)CCCCCCCCCCCCCCCCCCC(=O)N[C@@H](CCC(=O)NCCCOCCOCCOCCCN*)C(=O)O; X13 = O=C(O)CCCCCCCCCCCCCCC(=O)N[C@@H](CCC(=O)NCCCOCCOCCOCCCN*)C(=O)O; Trp(1-CH2COOH) = N[C@@H](Cc1cn(CC(=O)O)c2ccccc12)C(=O)O; d(cisHyp) = O=C(O)[C@H]1C[C@@H](O)CN1; NH(CH2)12COOH = O=C(O)CCCCCCCCCCCCN*; ξPro(4R-OH) = O=C(O)C1C[C@@H](O)CN1; Hyp = O=C(O)[C@@H]1C[C@@H](O)CN1; NMeNle = CCCC[C@H](NC)C(=O)O; NMeA = CN[C@@H](C)C(=O)O; Aun = NCCCCCCCCCCC(=O)O; Dab = NCC[C@H](N)C(=O)O; Dap = NC[C@H](N)C(=O)O

The target of one test is T1, PD-L1 (Homo sapiens, UniProt Q9NZQ7).
T1 construct: hPDL1(19-239)-TVMV-His; made in house; host or cells: HEK293T
T1 sequence (Q9NZQ7 with tags, fused parts or gaps): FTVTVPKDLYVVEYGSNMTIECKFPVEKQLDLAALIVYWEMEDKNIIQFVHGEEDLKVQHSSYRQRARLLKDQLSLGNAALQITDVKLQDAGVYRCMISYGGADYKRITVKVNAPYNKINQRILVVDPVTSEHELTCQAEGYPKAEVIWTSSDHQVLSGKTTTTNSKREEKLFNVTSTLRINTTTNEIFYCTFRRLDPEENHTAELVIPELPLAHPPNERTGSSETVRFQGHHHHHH
The test can be described thus: PD-1/PD-L1 Homogenous Time-Resolved Fluorescence (HTRF) binding assay (PD-1-Ig/PD-L1-His).
Conditions: not given
The method in brief: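 HTRF competition in dPBS with 0.1% BSA and 0.05% Tween-20: 20 nM PD-1-Ig added after 15 min compound pre-incubation with 10 nM PD-L1-His, then another 15 min. Signal (665/620 nm) after 30 min with APC anti-His (20 nM) and Eu anti-Ig (1 nM).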
A general note: Time-resolved FRET reads energy transfer from a long-lived donor to a nearby acceptor.
Compound `CCCC[C@H]1C(=O)N(C)[C@@H](CCCC)C(=O)N[C@@H](CCC(=O)O)C(=O)N[C@H](C(=O)NCC(=O)N[C@@H](Cc2cn(CCOCCOCCOCCOCCOCCOCCOCCOC(=O)CCC(=O)Oc3c(C)c(C)c4c(c3C)CC[C@@](C)(CCC[C@H](C)CCC[C@H](C)CCCC(C)C)O4)nn2)C(=O)NCC(N)=O)CSCC(=O)N[C@@H](Cc2ccc(O)cc2)C(=O)N(C)[C@@H](C)C(=O)N[C@@H](CC(=O)O)C(=O)N2CCC[C@H]2C(=O)N[C@@H](Cc2c[nH]cn2)C(=O)N[C@@H](CCCCN)C(=O)N2C[C@H](O)C[C@H]2C(=O)N[C@@H](Cc2c[nH]c3ccccc23)C(=O)N[C@@H](CCCCN)C(=O)N[C@@H](Cc2c[nH]c3ccccc23)C(=O)N1C` [Example 14052] yielded an IC50 of 10 to 99 nM.

Staying with this test, now noted: inhibition of PD-1-Ig binding to PD-L1-TVMV-His; value given as number; read-out: HTRF IC50.
With `CCCC[C@H]1C(=O)N(C)[C@@H](CCCC)C(=O)N[C@@H](CC(C)C)C(=O)N[C@H](C(=O)NCC(=O)N[C@@H](Cc2cn(CC[C@H](NC(=O)CCCCCCCCCCCCCCCCC(=O)O)C(=O)O)nn2)C(N)=O)CSCC(=O)N[C@@H](Cc2ccc(O)cc2)C(=O)N(C)[C@@H](C)C(=O)N[C@@H](CC(N)=O)C(=O)N2CCC[C@H]2C(=O)N[C@@H](CN)C(=O)N[C@@H](CC(C)C)C(=O)N2C[C@H](O)C[C@H]2C(=O)N[C@@H](Cc2c[nH]c3ccccc23)C(=O)N[C@@H](CCN)C(=O)N[C@@H](Cc2cn(CC(=O)O)c3ccccc23)C(=O)N1C` [Example 14096], the IC50 turned out to be 790 nM.
Still for that read-out and setting: in the case of `CCCC[C@H]1C(=O)N(C)[C@@H](CCCC)C(=O)N[C@@H](CC(C)C)C(=O)N[C@H](C(=O)NCC(=O)N[C@H](CC(=O)O)C(=O)NCCCCCCCCCCC(=O)O)CSCC(=O)N[C@@H](Cc2ccc(O)cc2)C(=O)N(C)[C@@H](C)C(=O)N[C@@H](CC(N)=O)C(=O)N2CCC[C@H]2C(=O)N[C@@H](CN)C(=O)N[C@@H](CC(C)C)C(=O)N2C[C@H](O)C[C@H]2C(=O)N[C@@H](Cc2c[nH]c3ccccc23)C(=O)N[C@@H](CCN)C(=O)N[C@@H](Cc2cn(CC(=O)O)c3ccccc23)C(=O)N1C` [Example 11101] ({CH2CO}-Y[NMeA]NP[Dap]L[Hyp]W[Dab][Trp(1-CH2COOH)][NMeNle][NMeNle]LCG[dD][Aun]-OH; thioether N-14) it was 4.1 nM.

The test is the same for the next values; noted with them: inhibition of PD-1-Ig binding to PD-L1-TVMV-His; value given as range class; read-out: HTRF IC50.
Turning to `CCCC[C@H]1C(=O)N(C)[C@@H](CCCC)C(=O)N[C@@H](CC(C)C)C(=O)N[C@H](C(=O)NCC(=O)N[C@@H](CC(=O)O)C(=O)N[C@@H](CC(=O)NCCCOCCOCCOCCCNC(=O)CC[C@H](NC(=O)CCCCCCCCCCCCCCCCCCC(=O)O)C(=O)O)C(=O)O)CSCC(=O)N[C@@H](Cc2ccc(O)cc2)C(=O)N(C)[C@@H](C)C(=O)N[C@@H](CC(N)=O)C(=O)N2CCC[C@H]2C(=O)N[C@@H](CN)C(=O)N[C@@H](CC(C)C)C(=O)N2C[C@H](O)CC2C(=O)N[C@@H](Cc2c[nH]c3ccccc23)C(=O)N[C@@H](CCN)C(=O)N[C@@H](Cc2cn(CC(=O)O)c3ccccc23)C(=O)N1C` (stereo partly drawn) [Example 11250] ({CH2CO}-Y[NMeA]NP[Dap]L[ξPro(4R-OH)]W[Dab][Trp(1-CH2COOH)][NMeNle][NMeNle]LCGDD(X12)-OH; thioether N-14), the IC50 was in the range of 0.3 to 9.9 nM.
As for `CCCC[C@H]1C(=O)N(C)[C@@H](CCCC)C(=O)N[C@@H](CC(C)C)C(=O)N[C@H](C(=O)NCC(=O)NCCCOCCOCCOCCCNC(=O)CC[C@H](NC(=O)CCCCCCCCCCCCCCC(=O)O)C(=O)O)CSCC(=O)N[C@@H](Cc2ccc(O)cc2)C(=O)N(C)[C@@H](C)C(=O)N[C@@H](CC(N)=O)C(=O)N2CCC[C@@H]2C(=O)N[C@@H](CN)C(=O)N[C@@H](CC(C)C)C(=O)N2C[C@H](O)C[C@@H]2C(=O)N[C@@H](Cc2c[nH]c3ccccc23)C(=O)N[C@@H](CCN)C(=O)N[C@@H](Cc2cn(CC(=O)O)c3ccccc23)C(=O)N1C` [Example 11168] ({CH2CO}-Y[NMeA]N[dP][Dap]L[d(cisHyp)]W[Dab][Trp(1-CH2COOH)][NMeNle][NMeNle]LCG-X13; thioether N-14), the IC50 fell in the range of 0.3 to 9.9 nM.
The same measure, in the same setting: in the case of `CCCC[C@H]1C(=O)N(C)[C@@H](CCCC)C(=O)N[C@@H](CC(C)C)C(=O)N[C@H](C(=O)NCC(=O)NCC(=O)N[C@@H](CC(=O)O)C(=O)NCCCCCCCCCCCCC(=O)O)CSCC(=O)N[C@@H](Cc2ccc(O)cc2)C(=O)N(C)[C@@H](C)C(=O)N[C@@H](CC(N)=O)C(=O)N2CCC[C@H]2C(=O)N[C@@H](CN)C(=O)N[C@@H](CC(C)C)C(=O)N2C[C@H](O)C[C@H]2C(=O)N[C@@H](Cc2c[nH]c3ccccc23)C(=O)N[C@@H](CCN)C(=O)N[C@@H](Cc2cn(CC(=O)O)c3ccccc23)C(=O)N1C` [Example 11221] ({CH2CO}-Y[NMeA]NP[Dap]L[Hyp]W[Dab][Trp(1-CH2COOH)][NMeNle][NMeNle]LCGGD-{NH(CH2)12COOH}; thioether N-14) it was 10 to 99 nM.
